Reference: patent US8410078B2, “Composition and methods to treat cardiac diseases” (University of Connecticut, priority 2006, dated 2013)

Assays:
intact WT mouse hearts = assay: Cardiac function in intact WT mouse heart preparation
Experimental: (§1) Following injection of heparin via tail vein (500 U/kg, iv) and anesthetization with nembutal (125 mg/kg for rats and 150 mg/kg for mice, ip) intraperitoneally, heart with all major vessels and lungs attached were excised. The aorta was then cannulated with a 20-gauge catheter, positioned about 2 mm above the coronary ostia. For the Langendorff method, a water-filled latex balloon (size #3) was inserted into the lumen of the left ventricle via the left atrium. The distal end of the balloon attached catheter was connected to a pressure transducer for measurement of intraventricular pressure and ±dP/dt. The balloon was inflated to a constantly held diastolic pressure of 5-7 mmHg. […]
(§2) For the working heart model, a column of KHS buffer produced a constant hydrostatic pressure of 65 mmHg (for rat) or 55 mmHg (for mice). […] Aortic flow was the amount of perfusate exiting the aortic cannula measured in […]. […]
(§3) The pressure recordings were channeled from amplifiers which had been pre-calibrated by a transducer simulator/calibrator (Ken Scientific Corp., Litchfield, Conn.). […] Data were analyzed by computer software (WorkBench for Windows+, Kent Scientific Corp) designed for an IBM-compatible computer (Dell). […] Data obtained with and without drug were analyzed by paired t test for possible statistically significant differences. […]

[1] = tested on: mouse thoracic aorta ring; assay: Vascular reactivity of phenylephrine-preconstricted thoracic aorta rings; conditions: pre-constricted with phenylephrine, 10^−9 to 10^−5 M
Experimental: Thoracic aortas were quickly removed from 8 to 10-week wild type (C57 BL6) mice, cut into 3 mm rings. After pre-constriction with phenylephrine (1 μM), increasing concentrations of acetylcholine or MRS2339 were added in a cumulative fashion to achieve a concentration-response curve. The % relaxation was determined as % decrease in ring tension (gram) compared to the tension before the addition of acetylcholine or MRS2339. Data were shown as mean±SEM.

intact CSQ mouse hearts = assay: Cardiac function in intact CSQ mouse heart preparation
Experimental: as §1, §2, §3

WT mice = assay: Survival after LAD ligation-induced myocardial infarction in WT mice; assay type: in vivo, mouse; conditions: treated from two days post-infarction, up to 60 days post-infarction
Experimental: Ligation of LAD in anesthetized mice was carried out using procedures similar to those previously described in the art. Adult WT (BL6) or P2X4R Tg mice 12-14 weeks old of either gender were anesthetized with ketamine (100 mg/kg) and xylazine (5 mg/kg) intraperitoneally. Under a dissecting microscope, mice were placed in a supine position on a heated pad to keep body temperature at 37° C. After endotracheal intubation, the cannula was connected to a small rodent ventilator (Hugo Sachs-Harvard Apparatus, Minivent Type 845, Holliston, Mass.) on room air with a stroke volume of 0.3 ml at a rate of 160 per min. A left intercostals thoracotomy was performed and myocardial infarction was produced by ligating the left anterior descending coronary artery with an 8-0 nylon suture within 2 mm below the edge of left atrium near the origin of the artery. The ligation was deemed successful when the left anterior wall turned pale and the ligation was aimed to induce a 30-40% infarct size. Animals were used according to the approved protocols of the Institutional Review Board at University of Connecticut School of Medicine.
The LAD ligation-mediated ischemic cardiomyopathy was induced in WT mice. (FIG. 26) At two days post-infarction, 15 mice were treated with […] and 19 mice were treated with NS (normal saline as the vehicle control). […]

Nc1nc(Cl)nc2c1ncn2C1[C@H]2C[C@@]2(COP(=O)(O)O)[C@@H](O)[C@H]1O (stereo partly drawn) [MRS2339, (1′S,2′R,3′S,4′R,5′S)-4-(6-amino-2-chloro-9H-purin-9-yl)-1-[phosphoryloxymethyl]bicyclo[3.1.0]hexane-2,3-diol]
+dP/dt (intact WT mouse hearts): increased | Relaxation of aorta ring segments [1]: did not induce relaxation | +dP/dt (intact CSQ mouse hearts): increased | Post-infarction survival (WT mice): greater than 95%
